{
  "source": "patent US10988444B2",
  "about": "“Antimicrobial compounds” (NEWSOUTH INNOVATIONS PTY LIMITED, priority 2016, dated 2021)",
  "key": {"E. coli [1]": {"system": "E. coli", "assay": "Minimal inhibitory concentration (MIC) determination, Example 1", "assay_type": "cell-based", "conditions": "Escherichia coli, 24 h, MHB, 37° C., read-out: Minimum inhibitory concentration (MIC) E. coli", "protocol": "(§1) The antibacterial activity of the compounds was determined by the determination of minimal inhibitory concentration (MIC) by following the previously published protocol (see Nizalapur, S.; Ho, K. K.; Kimyon, Ö.; Yee, E.; Berry, T.; Manefield, M.; Cranfield, C. G.; Willcox, M.; Black, D. S.; Kumar, N. Org. Biomol. Chem. 2016, 14, 3623). The compounds to be tested were dissolved and diluted in autoclaved Millipore water. A single colony of bacteria was cultured overnight in TSB at 37° C. The resulting bacteria were collected by centrifugation and re-suspended in the same volume of MHB twice. Optical density (OD) of the resulting culture was adjusted to 0.1 at 600 nm (10^8 CFU/mL) in MHB, and the adjusted culture was further diluted to […] in MHB. Then, 100 μL of the bacterial solution was added to wells of a 96-well plate containing 100 μL of serially diluted compound. Two controls were also prepared: one containing 100 μL of MHB media and 100 μL sterile water, and the other containing 100 μL of bacterial solution and 100 μL sterile water. […] The MIC value was determined as the lowest concentration of compound that inhibited the complete growth of the bacteria (i.e. OD similar to that of the control having no bacteria). Each experiment was performed in triplicate and was repeated in three independent experiments.\n(§2) The results of the MIC assay are given below in Table 1."}, "S. aureus [2]": {"system": "S. aureus", "assay": "Minimal inhibitory concentration (MIC) determination, Example 1", "assay_type": "cell-based", "conditions": "Staphylococcus aureus", "protocol": "as §1, §2"}, "S. marcescens biofilms": {"system": "S. marcescens biofilms", "assay": "Confocal microscopy of non-established biofilms, Live/dead stain", "assay_type": "cell-based, Serratia marcescens", "conditions": "250 μM", "protocol": "S. aureus and Serratia marcescens biofilms were grown by adding 1.5 ml of bacterial cells (OD600 nm˜0.600) suspended in fresh TSB medium into 35×10 mm polystyrene petri dishes and incubated over 24 h at 37° C. in a shaking incubator at 120 r.p.m. Cultures were supplemented with varying concentrations of synthetic compounds dissolved in water. Control cultures were supplemented with an equal amount of water. After 24 h, the biofilm growth medium was discarded and the biofilms were gently rinsed 3 times with PBS (pH: 7.0) in order to remove any planktonic bacterial cells. The remaining substratum adhered biofilms were then stained with Live/dead stain (Invitrogen, Oregon, USA) for 20 mins in the dark and then subjected to confocal microscopy. Stained biofilms were visualized with FV 1200 Confocal microscope."}, "[3]": {"system": "MRC-5 normal human lung fibroblasts", "assay": "Toxicity assay, Alamar blue, Example 1", "assay_type": "cell-based", "conditions": "72 h incubation", "protocol": "The normal human lung fibroblasts MRC-5 were cultured in minimal essential medium (MEM, Invitrogen) supplemented with 10% foetal calf serum (FCS), 1% L-glutamine-penicillin-streptomycin, 2% sodium bicarbonate, 1% non-essential amino acids (NEAA) and 1% sodium pyruvate. The cell line was maintained at 37° C. in 5% CO2 as an adherent monolayer and was passaged upon reaching confluence by standard cell culture techniques. MRC-5 cells were seeded at 2×10^4 cells per well in 96-well plates to ensure full confluence (quiescence). Cells were treated 24 h after seeding with 0.1 to 1000 μM of compounds. After 72 h drug incubation, the treated media was replaced with fresh media containing 10% Alamar blue and the cells were incubated for another 6 h. The metabolic activity was detected by spectrophotometric analysis by assessing the absorbance of Alamar blue as previously described by Pasquier et. al (see Pasquier, E.; Ciccolini, J.; Carre, M.; Giacometti, S.; Fanciullino, R.; Pouchy, C.; Montero, M.-P.; Serdjebi, C.; Kavallaris, M.; André, N. Oncotarget 2011, 2, 797).\nCell proliferation was determined and expressed as a percentage of untreated control cells. The determination of IC50 values was performed using GraphPad Prism 6 (San Diego, Calif., USA).\nTo further evaluate the utility of these novel guanylated peptidomimetics for medical applications, it was essential to determine their specificity towards bacterial cells over mammalian cells."}, "[4]": {"system": "Pseudomonas aeruginosa (PAO1)", "assay": "Biofilm inhibition assay (inhibition of biofilm formation), crystal violet staining", "assay_type": "cell-based", "conditions": "24 h, read-out: inhibition of biofilm formation by P. aeruginosa", "protocol": "(§3) Bacterial cultures were grown in TSB media for overnight at 37° C. with shaking at 150 r.p.m. Cultures were diluted (1:20) in YPD medium and 200 μl aliquots were dispensed to flat bottom 96-well plate wells (Sarstedt Australia). Cultures were supplemented with varying concentrations of synthetic compounds dissolved in water. For no-established biofilm assay, cultures were grown in 96-well plate wells overnight along with synthetic compounds. Control cultures were supplemented with an equal amount of water. Plates were sealed with self-adhesive microplate sealers (TopSeal-A, PerkinElmer) to allow air diffusion and to prevent condensation. Cultures were incubated overnight at 37° C. with shaking at 150 r.p.m. Biofilms adhered on polystyrene substratum were quantified by crystal violet staining as described previously (see Wiegand, I.; Hilpert, K.; Hancock, R. E. W. Nat. Protocols 2008, 3 (2), 163-175). All cultures were prepared in triplicates. Error bars represent the standard error of three independent experiments (n=3).\n(§4) The biofilm disruption activities of the compounds were investigated using crystal violet staining according to a previously published protocol (G. A. O'Toole, J Vis Exp, 2011, (47), pii: 2437, DOI: 10.3791/2437, 2437). The ability of compounds (34-38, 51-56, 61, 62, 65 and 66) to disrupt the established biofilms of the Gram-positive bacteria S. aureus and the Gram-negative bacteria Pseudomonas aeruginosa, Serratia marcescens and E. coli, was determined at a concentration of 250 μM. In this assay, bacterial cultures were grown on a polystyrene substratum overnight prior to treatment with the compounds. In addition, the ability of these compounds to inhibit the formation of biofilms of P. aeruginosa and S. marcescens was also investigated at 250 μM, whereby the bacterial cultures were grown in the presence of test compounds."}, "S. marcescens": {"system": "S. marcescens", "assay": "Biofilm disruption assay, established biofilms, crystal violet staining", "assay_type": "cell-based, Serratia marcescens", "conditions": "250 μM, 24 h treatment", "protocol": "as §3, with “For pre-established” for “For no-established”, “overnight prior to supplementation” for “overnight along”, “of DMSO.” for “of water.”\nas §4"}, "S. aureus (SA38)": {"system": "S. aureus (SA38)", "conditions": "Literature value; cited from earlier work"}, "S. aureus biofilms": {"system": "S. aureus biofilms", "assay": "Confocal microscopy of established biofilms, Live/dead stain", "assay_type": "cell-based", "conditions": "250 μM"}, "[5]": {"system": "Pseudomonas aeruginosa (PAO1)", "assay": "Biofilm disruption assay, established biofilms, crystal violet staining", "assay_type": "cell-based", "conditions": "250 μM, 24 h treatment", "protocol": "as §3, with “For pre-established” for “For no-established”, “overnight prior to supplementation” for “overnight along”, “of DMSO.” for “of water.”\nas §4"}, "E. coli [6]": {"system": "E. coli", "assay": "Biofilm disruption assay, established biofilms, crystal violet staining", "assay_type": "cell-based", "conditions": "250 μM, 24 h treatment", "protocol": "as §3, with “For pre-established” for “For no-established”, “overnight prior to supplementation” for “overnight along”, “of DMSO.” for “of water.”\nas §4"}, "S. aureus [7]": {"system": "S. aureus", "assay": "Biofilm disruption assay, established biofilms, crystal violet staining", "assay_type": "cell-based", "conditions": "250 μM, 24 h treatment", "protocol": "as §3, with “For pre-established” for “For no-established”, “overnight prior to supplementation” for “overnight along”, “of DMSO.” for “of water.”\nas §4"}, "[8]": {"conditions": "MHB, 37° C., 24 h, read-out: Minimum inhibitory concentration (MIC) S. aureus"}},
  "note": "Read-outs that look alike come from different tables or passages of the source.",
  "data": [
    {"compound": "COC(=O)[C@H](CCCNC(=N)N)NC(=O)[C@H](CCCNC(=N)N)NC(=O)C(=O)c1ccccc1NC(=O)c1ccc2ccccc2c1.Cl.Cl", "note": "[Compound 65, Methyl (2-(2-(2-naphthamido)phenyl)-2-oxoacetyl)arginylargininate dihydrochloride]", "values": [
      {"measurement": "MIC", "setting": "E. coli [1]", "result": 90, "unit": "µg/mL"},
      {"measurement": "MIC", "setting": "S. aureus [2]; [8]", "result": 18, "unit": "µg/mL"},
      {"measurement": "MIC", "setting": "S. aureus [2]; MIC in μM as compared with MRC-5 IC50, read-out: equivalent MIC values", "result": 31, "unit": "µM"},
      {"measurement": "confocal microscopy, effect on S. marcescens biofilm formation", "setting": "S. marcescens biofilms", "result": "inhibited biofilm formation"},
      {"measurement": "toxicity (IC50) against MRC-5 human fibroblast cells", "setting": "[3]", "result": "not reaching a 50% reduction of cell viability at the highest tested dose"},
      {"measurement": "inhibition at 250 µM", "setting": "[4]", "result": 65, "unit": "%"},
      {"measurement": "disruption of established biofilms of S. marcescens", "setting": "S. marcescens", "result": 60, "unit": "%"}
    ]},
    {"compound": "MSI-78", "values": [
      {"measurement": "MIC", "setting": "S. aureus (SA38)", "result": 13, "unit": "µM"}
    ]},
    {"compound": "COC(=O)C(CCCN)NC(=O)C(CCCCN)NC(=O)C(=O)c1cc(Br)ccc1NC(=O)c1ccc2ccccc2c1.Cl.Cl", "note": "(stereo not drawn) [Compound 62, Methyl 2-(2-(2-(2-(2-naphthamido)-5-bromophenyl)-2-oxoacetamido)-6-aminohexanamido)-5-aminopentanoate dihydrochloride]", "values": [
      {"measurement": "confocal microscopy, effect on pre-established S. aureus biofilm", "setting": "S. aureus biofilms", "result": "disrupted the pre-established biofilm significantly"},
      {"measurement": "MIC", "setting": "E. coli [1]", "result": 21, "unit": "µg/mL"},
      {"measurement": "MIC", "setting": "S. aureus [2]; [8]", "result": 23, "unit": "µg/mL"},
      {"measurement": "disruption of established biofilms of S. marcescens", "setting": "S. marcescens", "result": 49, "unit": "%"},
      {"measurement": "disruption of established biofilms of P. aeruginosa", "setting": "[5]", "result": 46, "unit": "%"},
      {"measurement": "disruption of established biofilms of E. coli", "setting": "E. coli [6]", "result": 42, "unit": "%"},
      {"measurement": "disruption of established biofilms of S. aureus", "setting": "S. aureus [7]", "result": 61, "unit": "%"}
    ]}
  ]
}
